Measured values as given in PubChem BioAssay (NCI).
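Step 1: Grow cells in 96-well plates. Step 2: Expose to compound for 48 hours at 5 concentrations. Step 3: Interpolate endpoints linearly; if unreached, use highest concentration. Here, GI50 denotes the concentration required for 50% inhibition of growth. TGI: concentration producing complete growth inhibition.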

How the values were obtained:
Experiment in all cases: NCI-60 cell line screen, 48 h
DU-145 prostate = tested on: DU-145 prostate
MDA-MB-231 breast = tested on: MDA-MB-231 breast
MOLT-4 leukemia = tested on: MOLT-4 leukemia
RXF 393 renal = tested on: RXF 393 renal
SF-268 CNS = tested on: SF-268 CNS
SF-295 CNS = tested on: SF-295 CNS
UO-31 renal = tested on: UO-31 renal
MCF7 breast = tested on: MCF7 breast

SMILES | TGI (DU-145 prostate) | TGI (MDA-MB-231 breast) | TGI (MOLT-4 leukemia) | TGI (RXF 393 renal) | TGI (SF-268 CNS) | TGI (SF-295 CNS) | TGI (UO-31 renal) | TGI (MCF7 breast) | GI50 (DU-145 prostate) | GI50 (MDA-MB-231 breast) | GI50 (MOLT-4 leukemia) | GI50 (UO-31 renal)
Cc1ccc(S(=O)(=O)N(CC(O)COc2ccccc2)c2ccc(F)cc2F)cc1 (centres undefined) | 46.9 µM | 39 µM | 94.2 µM | 27 µM | 31.8 µM | 34.4 µM | 26.9 µM |  |  |  |  | 
O=c1cc(NCc2ccncc2)[nH]c(=O)[nH]1 |  | > 100 µM | > 100 µM | > 100 µM | > 100 µM | > 100 µM | > 100 µM | > 100 µM |  |  |  | 
COC(=O)CCCC(=O)NC1=C(NCc2ccccc2)C(=O)c2ccccc2C1=O | > 100 µM | > 100 µM | > 100 µM |  | > 100 µM |  | > 100 µM | > 100 µM |  |  |  | 
CCN(CC)c1nc(N(C)C)c2ccccc2n1 |  | > 100 µM | 30.3 µM | 76.6 µM | > 100 µM | > 100 µM | 85.1 µM | > 100 µM |  |  |  | 
CC1OC2OC3C(OCC(O)C3O)OC(=O)[C@]34CCC(C)(C)CC3C3=CCC5[C@@]6(C)C[C@H](O)[C@H](OC7OC(CO)C(O)C(O)C7OC7OCC(OC(=O)CC(C)(O)CC(=O)OC1C(OC1OC(CO)C(O)C(O)C1O)C2O)C(O)C7O)[C@@](C)(CO)C6CC[C@@]5(C)[C@]3(C)CC4 (some centres undefined) | 17.3 µM | 21.1 µM | 21.3 µM |  | 22.2 µM | 13.4 µM | 14.9 µM | 23.6 µM |  |  |  | 
CCOC(=O)C(=O)C(=O)NN(C)C1=NCCN1 | > 100 µM | > 100 µM | > 100 µM | > 100 µM | > 100 µM | > 100 µM | > 100 µM | > 100 µM |  |  |  | 
O=C(c1ccco1)N(C(=S)OC12CC3CC(CC(C3)C1)C2)c1ccccc1 | > 100 µM | > 100 µM | > 100 µM | 44.8 µM | > 100 µM | > 100 µM | 98.7 µM | 85.3 µM |  |  |  | 
COC1(OC)c2no[n+]([O-])c2C(OC)(OC)c2c1no[n+]2[O-] | > 100 µM | 32.9 µM | > 100 µM | 58.7 µM | 73.3 µM | 80 µM | > 100 µM | 42.7 µM |  |  |  | 
CC(C)C(=O)Oc1cc2c(=O)oc3c(OC(=O)C(C)C)c(OC(=O)C(C)C)cc4c(=O)oc(c1OC(=O)C(C)C)c2c34 | > 100 µM | > 100 µM | > 100 µM | > 100 µM | > 100 µM | > 100 µM | > 100 µM | > 100 µM |  |  |  | 
COc1ccc(C(O)CC(O)(C(F)(F)F)C(F)(F)F)cc1 (centres undefined) | > 100 µM | > 100 µM | > 100 µM | 62 µM | > 100 µM | 75.7 µM | > 100 µM | > 100 µM |  |  |  | 
C=C1C(=O)O[C@H]2[C@H]3O[C@@H](C[C@@H]12)[C@](C)(O)CC[C@@H]1O[C@@]1(C)CCC[C@H]3C | 33.4 µM | 65.8 µM | > 100 µM | 26.9 µM | 34.2 µM | > 100 µM | 69.3 µM | 50.9 µM |  |  |  | 
C(/Cc1ccc2c(c1)OCO2)=N\NC1=NCCCN1 | > 100 µM | > 100 µM | 55.2 µM | > 100 µM | > 100 µM | > 100 µM | > 100 µM | > 100 µM |  |  |  | 
CCCNc1ncnc2[nH]ncc12 | > 100 µM | > 100 µM | > 100 µM | > 100 µM | > 100 µM | > 100 µM | > 100 µM | > 100 µM |  |  |  | 
Cc1ccc(/C(O)=C/c2nc3ccc([N+](=O)[O-])cc3nc2/C=C(\O)c2ccc(C)cc2)cc1 | > 100 µM | > 100 µM | > 100 µM | > 77.5 µM | > 100 µM | > 100 µM | > 100 µM | > 100 µM |  |  |  | 
CC(=O)Nc1cc(Nc2cc(=O)[nH]c(=O)[nH]2)ccc1C | > 100 µM | > 100 µM |  | > 100 µM | > 100 µM | > 100 µM | > 100 µM | > 100 µM |  |  |  | 
CC(C)(C)OC(=O)n1cc(C2CN(O)C(=O)C23CCC(=O)N3Cc2ccccc2)c2ccccc21 (centres undefined) | > 100 µM | > 100 µM | > 100 µM | > 100 µM | > 100 µM | > 100 µM | > 100 µM | > 100 µM |  |  |  | 
O=C1CC(n2cccc2)c2c(Br)sc(Br)c21 (centres undefined) | 31.8 µM | 30.9 µM | 33.6 µM | 43.4 µM | 31.2 µM | 55.8 µM | 5.66 µM | 26.9 µM |  |  |  | 
CN(C)c1ccc(/C=C2\N=C(c3ccccc3)N(c3ccc4c(c3)Sc3cc(N5C(=O)/C(=C/c6ccc(N(C)C)cc6)N=C5c5ccccc5)ccc3N4)C2=O)cc1 | 76.1 µM | 41.5 µM | > 100 µM |  | 37.3 µM | 36 µM | 34.8 µM | 32.4 µM |  |  |  | 
CC(=O)OC1CC2C(=O)C(=O)C1(C)C2(C)C (centres undefined) | > 100 µM | > 100 µM | > 100 µM |  | > 100 µM | > 100 µM | > 100 µM | > 100 µM |  |  |  | 

SMILES | TGI (DU-145 prostate) | TGI (MDA-MB-231 breast) | TGI (MOLT-4 leukemia) | TGI (RXF 393 renal) | TGI (SF-268 CNS) | TGI (SF-295 CNS) | TGI (UO-31 renal) | TGI (MCF7 breast) | GI50 (DU-145 prostate) | GI50 (MDA-MB-231 breast) | GI50 (MOLT-4 leukemia) | GI50 (UO-31 renal)
CC(C)OC1OC(CO)C(O)CC1n1cc(F)c(=O)[nH]c1=O (centres undefined) | > 100 µM | > 100 µM |  | > 100 µM | > 100 µM | > 100 µM | > 100 µM | > 100 µM |  |  |  | 
CO[C@]1(CN2CCN3CCCC[C@@H]3C2)/C=C/C[C@H](C)[C@@H](C)S(=O)(=O)NC(=O)c2ccc3c(c2)N(C[C@@H]2CC[C@H]21)C[C@@]1(CCCc2cc(Cl)ccc21)CO3 | 6.54 µM | 3.27 µM | 2.1 µM |  |  |  | 2.93 µM |  | 2400 nM | 1780 nM | 198 nM | 1430 nM
S=C(NCc1ccccc1)N/N=C/c1ccccn1 | > 100 µM | > 100 µM | 16.6 µM |  | > 91.4 µM |  | 21 µM | > 100 µM |  |  |  | 
O=[N+]([O-])c1cccnc1-n1cnc2ccccc21 | > 100 µM | > 100 µM | > 100 µM | > 100 µM | > 100 µM | > 100 µM |  | > 100 µM |  |  |  | 
O=C(NNCc1ccc(Cl)cc1)Nc1cccc2ccccc12 | > 100 µM |  | > 100 µM | > 100 µM | > 100 µM | > 100 µM | > 100 µM | > 100 µM |  |  |  | 
O=[N+]([O-])c1ccc(C(Nc2ccccc2)c2ccc3cccnc3c2O)cc1 (centres undefined) | > 100 µM | 59.9 µM |  | 24.6 µM | > 52.7 µM | > 100 µM | 32.3 µM | > 75.6 µM |  |  |  | 
c1ccc(-c2nnn(CCN3CCCCC3)n2)cc1 | > 100 µM | > 100 µM |  | > 100 µM | > 100 µM | > 100 µM | > 100 µM | > 100 µM |  |  |  | 
CS(=O)(=O)NC12CCC(c3ccccc31)c1ccccc12 | > 100 µM | > 100 µM | > 100 µM |  | > 100 µM |  | > 100 µM | > 100 µM |  |  |  | 
CSc1nc(NC(C)C)c2c(n1)Sc1nc3ccccc3n1C2O (centres undefined) |  | > 100 µM | 14.1 µM | 30.4 µM | > 100 µM | > 100 µM | 27.8 µM | > 100 µM |  |  |  | 
CC(=O)/C(=C\c1ccc(Cl)c(Cl)c1)C(=O)C(C)CN(C)C (centres undefined) | 17.3 µM | 27.3 µM | 6.6 µM |  | 23.4 µM | 16.5 µM | 14.5 µM | 22.4 µM |  |  |  | 
Cc1cc2c(c(=O)n1C)SCC2 | > 100 µM | > 100 µM | > 100 µM | > 100 µM | > 100 µM | > 100 µM | > 100 µM |  |  |  |  | 
COc1ccc2nc3n(c2c1)CCc1cc(OC)c(OC)cc1-3 | > 100 µM | > 100 µM |  | > 100 µM | > 100 µM | > 100 µM |  | > 100 µM |  |  |  | 
CSc1ccc(/C=C2\N=C(c3ccccc3)N(/N=C/c3cc4cc(C)ccc4nc3Cl)C2=O)cc1 | 36 µM | 47.6 µM | 37.2 µM |  | 47.6 µM | 44.7 µM | 33.4 µM | 43.2 µM |  |  |  | 
CCOC(=O)c1cn(C)c(=S)n2c1nc1ccccc12 | > 100 µM | > 100 µM | > 100 µM | > 100 µM |  | > 100 µM | > 100 µM | > 100 µM |  |  |  | 
CCN(CC)CCN(C(=O)C(C)(C)C)c1ccccc1N | > 100 µM |  | > 100 µM | > 100 µM | > 100 µM | > 100 µM | > 100 µM | > 100 µM |  |  |  | 
O=C1c2ccccc2C(=O)N1c1nc(-c2ccc(Cl)cc2)cc(N2N=C(c3ccc(Br)cc3)CC2c2ccccc2)n1 (centres undefined) | > 23.3 µM | 23.3 µM | > 23.7 µM |  | 7.72 µM | 3.65 µM |  | 4.57 µM |  |  |  | 
CC1CC/C(=C\c2ccc(Cl)cc2)c2nc(N)c(C#N)c(-c3ccc(Cl)cc3)c21 (centres undefined) |  | > 100 µM | > 100 µM |  |  | > 100 µM | > 100 µM | > 100 µM |  |  |  | 
C/C(=N\Nc1nc2ccccc2[nH]1)c1cc2ccccc2cn1 | 1.91 µM | 1.97 µM | > 100 µM |  | 1.02 µM |  | 1.38 µM | 2.31 µM |  |  |  | 
COC(=O)C1=C(O)C(C(=O)OC)[C@]2(O)[C@H](C(=O)OC)[C@H]1C[C@@H](c1ccc([N+](=O)[O-])cc1)[C@H]2C(=O)OC (some centres undefined) | > 100 µM | 83.9 µM | 81.6 µM | 32.4 µM | 51.6 µM | > 100 µM |  |  |  |  |  | 
